Tests used:
Format in all cases: functional
[1] = system: SN12C; assay: Cytotoxicity against Homo sapiens (human) SN12C cells after 48 hr by sulforhodamine B assay
[2] = system: A549; assay: Cytotoxicity against Homo sapiens (human) A549 cells after 48 hr by sulforhodamine B assay; details: A549, 48 h
[3] = system: NCI-H322M; assay: Cytotoxicity against Homo sapiens (human) NCI-H322M cells after 48 hr by sulforhodamine B assay
[4] = system: HCC 2998; assay: Cytotoxicity against Homo sapiens (human) HCC2998 cells after 48 hr by sulforhodamine B assay; details: HCC 2998, 48 h
[5] = system: COLO 205; assay: Cytotoxicity against Homo sapiens (human) COLO205 cells after 48 hr by sulforhodamine B assay; details: COLO 205, 48 h
[6] = system: HOP-62; assay: Cytotoxicity against Homo sapiens (human) HOP62 cells after 48 hr by sulforhodamine B assay; details: HOP-62, 48 h
[7] = system: NCI-H23; assay: Cytotoxicity against Homo sapiens (human) NCI-H23 cells after 48 hr by sulforhodamine B assay; details: NCI-H23, 48 h
[8] = system: SF-268; assay: Cytotoxicity against Homo sapiens (human) SF268 cells assessed as cell growth at 10^-4 M after 48 hr by […] assay; details: SF-268, 48 h, read-out: Activity
[9] = system: U-251; assay: Cytotoxicity against Homo sapiens (human) U251 cells after 48 hr by sulforhodamine B assay; details: U-251, 48 h
[10] = system: RXF 393; assay: Cytotoxicity against Homo sapiens (human) RXF393 cells after 48 hr by sulforhodamine B assay; details: RXF 393, 48 h
[11] = system: IGROV-1; assay: Cytotoxicity against Homo sapiens (human) IGROV1 cells after 48 hr by sulforhodamine B assay; details: IGROV-1, 48 h
[12] = system: PC-3; assay: Cytotoxicity against Homo sapiens (human) PC3 cells after 48 hr by sulforhodamine B assay; details: PC-3, 48 h
[13] = system: NCI-H522; assay: Cytotoxicity against Homo sapiens (human) NCI-H522 cells after 48 hr by sulforhodamine B assay; details: NCI-H522, 48 h
[14] = system: MOLT-4; assay: Cytotoxicity against Homo sapiens (human) MOLT4 cells after 48 hr by sulforhodamine B assay; details: MOLT-4, 48 h
[15] = system: OVCAR-3; assay: Cytotoxicity against Homo sapiens (human) OVCAR3 cells after 48 hr by sulforhodamine B assay; details: OVCAR-3, 48 h
[16] = system: MDA-MB-435; assay: Cytotoxicity against Homo sapiens (human) MDA-MB-435 cells after 48 hr by sulforhodamine B assay; details: MDA-MB-435, 48 h
[17] = system: SK-MEL-5; assay: Cytotoxicity against Homo sapiens (human) SK-MEL-5 cells after 48 hr by sulforhodamine B assay; details: SK-MEL-5, 48 h
[18] = system: OVCAR-4; assay: Cytotoxicity against Homo sapiens (human) OVCAR4 cells after 48 hr by sulforhodamine B assay; details: OVCAR-4, 48 h
[19] = system: MDA-MB-231; assay: Cytotoxicity against Homo sapiens (human) MDA-MB-231 cells after 48 hr by sulforhodamine B assay; details: MDA-MB-231, 48 h
[20] = system: EKVX; assay: Cytotoxicity against Homo sapiens (human) EKVX cells after 48 hr by sulforhodamine B assay
[21] = system: CAKI-1; assay: Cytotoxicity against Homo sapiens (human) Caki1 cells after 48 hr by sulforhodamine B assay; details: CAKI-1, 48 h
[22] = system: SK-MEL-2; assay: Cytotoxicity against Homo sapiens (human) SK-MEL-2 cells after 48 hr by sulforhodamine B assay; details: SK-MEL-2, 48 h
[23] = system: UACC-257; assay: Cytotoxicity against Homo sapiens (human) UACC257 cells after 48 hr by sulforhodamine B assay; details: UACC-257, 48 h
[24] = system: NCI-H226; assay: Cytotoxicity against Homo sapiens (human) NCI-H226 cells after 48 hr by sulforhodamine B assay; details: NCI-H226, 48 h
[25] = system: HT-29; assay: Cytotoxicity against Homo sapiens (human) HT-29 cells after 48 hr by sulforhodamine B assay; details: HT-29, 48 h
[26] = system: K562; assay: Cytotoxicity against Homo sapiens (human) K562 cells after 48 hr by sulforhodamine B assay; details: K562, 48 h
[27] = system: UACC-62; assay: Cytotoxicity against Homo sapiens (human) UACC62 cells after 48 hr by sulforhodamine B assay; details: UACC-62, 48 h
[28] = system: HCT-116; assay: Cytotoxicity against Homo sapiens (human) HCT116 cells after 48 hr by sulforhodamine B assay; details: HCT-116, 48 h
[29] = system: KM12; assay: Cytotoxicity against Homo sapiens (human) KM12 cells after 48 hr by sulforhodamine B assay; details: KM12, 48 h
[30] = system: SF-539; assay: Cytotoxicity against Homo sapiens (human) SF539 cells after 48 hr by sulforhodamine B assay; details: SF-539, 48 h
[31] = Cytotoxicity against Homo sapiens (human) NCI-ADR-RES cells after 48 hr by sulforhodamine B assay
[32] = read-out: LC50 (the source's name)

For `ClCc1ccc(Cn2cnc3c(Cl)nc(Cl)nc32)cc1`, the GI50 [1] was 7.24 µM, the LC50 (50% lethal concentration) [1] was 51.3 µM and the TGI [1] was 20.9 µM. For the same compound, the GI50 [2] was 18.6 µM, the TGI [2] was 37.1 µM and the CC50 [2, 32] was 74.1 µM. It also gave a GI50 [3] of 12.6 µM, a TGI [3] of 25.1 µM and a CC50 [3, 32] of 50.1 µM. It also gave a GI50 [4] of 10.2 µM, a TGI [4] of 24 µM and a CC50 [4, 32] of 56.2 µM. The GI50 [5] was 3.47 µM, the TGI [5] was over 100 µM and the CC50 [5, 32] was over 100 µM. The GI50 [6] was 2190 nM, the TGI [6] was 5.13 µM and the CC50 [6, 32] was 19.5 µM. For the same compound, the GI50 [7] was 7.59 µM, the TGI [7] was 23.4 µM and the CC50 [7, 32] was 58.9 µM. It also gave a growth at 100 µM [8] of 0%, a GI50 [9] of 2040 nM and an LC50 (concentration killing 50% of cells) [9] of 7.41 µM. For the same compound, the TGI [9] was 3.89 µM, the GI50 [10] was 20.9 µM and the TGI [10] was 41.7 µM. The CC50 [10, 32] was 83.2 µM, the GI50 [11] was 15.1 µM and the LC50 [11] was 60.3 µM. The TGI [11] was 30.2 µM, the GI50 [12] was 2690 nM and the LC50 (concentration causing 50% cell kill) [12] was 45.7 µM. It also gave a TGI [12] of 7.24 µM, a GI50 [13] of 22.4 µM and a TGI [13] of 46.8 µM. For the same compound, the CC50 [13, 32] was 97.7 µM, the GI50 [14] was 10.5 µM and the TGI [14] was 27.5 µM. For the same compound, the CC50 [14, 32] was 72.4 µM, the GI50 [15] was 2000 nM and the LC50 [15] was 9.55 µM. The TGI [15] was 4.37 µM, the GI50 [16] was 12.6 µM and the LC50 [16] was 50.1 µM. For the same compound, the TGI [16] was 25.1 µM, the GI50 [17] was 6.46 µM and the LC50 [17] was 44.7 µM. It also gave a TGI [17] of 19.1 µM, a GI50 [18] of 4.9 µM and an LC50 (concentration killing 50% of cells) [18] of 61.7 µM. For the same compound, the TGI [18] was 18.6 µM, the GI50 [19] was 1820 nM and the LC50 [19] was 7.24 µM. For the same compound, the TGI [19] was 3.63 µM, the GI50 [20] was 17.4 µM and the TGI [20] was 31.6 µM. For the same compound, the CC50 [20, 32] was 58.9 µM, the GI50 [21] was 9.12 µM and the TGI [21] was 21.4 µM. The CC50 [21, 32] was 46.8 µM, the GI50 [22] was 19.9 µM and the LC50 (concentration killing 50% of cells) [22] was 95.5 µM. The TGI [22] was 43.6 µM, the GI50 [23] was 16.2 µM and the LC50 (concentration killing 50% of cells) [23] was 69.2 µM. The TGI [23] was 33.1 µM, the GI50 [24] was 3.55 µM and the TGI [24] was 9.55 µM. For the same compound, the CC50 [24, 32] was 33.9 µM, the GI50 [25] was 2880 nM and the TGI [25] was over 100 µM. The CC50 [25, 32] was over 100 µM, the GI50 [26] was 23.4 µM and the TGI [26] was 66.1 µM. The CC50 [26, 32] was over 100 µM, the GI50 [27] was 2040 nM and the LC50 (concentration causing 50% net cell kill) [27] was 9.33 µM. For the same compound, the TGI [27] was 4.37 µM, the GI50 [28] was 1700 nM and the TGI [28] was 3.63 µM. For the same compound, the CC50 [28, 32] was 7.59 µM, the GI50 [29] was 1820 nM and the TGI [29] was 3.24 µM. It also gave a CC50 [29, 32] of 5.75 µM, a GI50 [30] of 17 µM and an LC50 (concentration killing 50% of cells) [30] of 56.2 µM. For the same compound, the TGI [30] was 30.9 µM, the GI50 [31] was 16.6 µM and the LC50 (concentration killing 50% of cells) [31] was over 100 µM. It also gave a TGI [31] of over 100 µM.
